{"source": "patent US11365215B2", "about": "“Method for preventing, improving, or treating inflammatory bowel disease” (Research & Business Foundation Sungkyunkwan University, priority 2015, dated 2022)", "key": {"[1]": {"tested_on": "ARPE-19 cells (Nox-4, VEGF, VEGFR1, VEGFR2, Ang1, Ang2, Tie-2, EPO, EPOR)", "test": "Western blot of angiogenesis related factors in high-glucose ARPE-19 cells", "type": "cell-based, human", "conditions": "30 mM glucose 48 hours, 10 nM and 50 nM", "protocol": "ARPE-19 cells were treated with 5.5 mM of glucose as reference control. For experiment group, the ARPE-19 cells were treated with 30 mM of glucose for 48 hours to induce high blood glucose condition, and simultaneously treated with DMSO, compound 1.1 (SEQ ID NO: 2) (10 nM), and compound 1.1 (SEQ ID NO: 2) (50 nM). Changes in expression of Nox-4, VEGF, VEGFR1, VEGFR2, Ang1, Ang2, Tie-2, EPO, and EPOR proteins were measured by Western blot analysis."}, "[2]": {"tested_on": "SBE (TFG-β1 signaling)", "test": "SBE-Luc reporter assay in Raw 264.7 cells treated with TFG-β1", "type": "cell-based", "conditions": "5 ng/mL TFG-β1 two hours", "protocol": "Specifically, 5×NF-κB-Luc reporter plasmid, SBE-Luc reporter plasmid, and BRE-Luc reporter plasmid were individually transfected into Raw 264.7 macrophage cells. After 24 hours, the cells transfected with the NF-κB-Luc reporter plasmid were treated with 100 ng/mL of LPS, the cells transfected with the SBE-Luc reporter plasmid were treated with 5 ng/mL of TFG-β1, and the cells transfected with the BRE-Luc reporter plasmid were treated with 100 ng/mL of BMP6 for two hours."}, "[3]": {"tested_on": "HRMEC cells", "test": "VEGF-induced tube formation in HRMEC cells", "type": "cell-based", "conditions": "HRMEC on Matrigel; 20 ng/ml VEGF 4 hours; 50 nM", "protocol": "To evaluate the effect of compound 1.1 (SEQ ID NO: 2) on tube formation during angiogenesis, HRMEC cells ([…]) were cultured on Matrigel coated micro slides and treated with 20 ng/ml of VEGF for 4 hours to induce the tube formation. Simultaneously, for reference group, the cells were treated with DMSO, and for experimental group, the cells were treated with 50 nM of compound 1.1 (SEQ ID NO: 2) and 1 uM of calcein-AM. The cells were observed using fluorescence microscope."}, "[4]": {"tested_on": "interleukin-6", "test": "Suppression of LPS-induced IL-6 expression in RAW 264.7 macrophage cells (RT-PCR, Real-Time PCR)", "type": "cell-based", "protocol": "(§1) First, RAW 264.7 macrophage cells were purchased from American Type Culture Collection (ATCC; Manassas, Va.), and were culture at a temperature of 37° C., under 5% CO2 atmosphere, using 10% Fetal Bovine Serum (FBS) and Dulbecco's Modified Eagle's Medium (DMEM) containing 1% penicillin/streptomycin.\nThe cultured RAW 264.7 macrophage cells were divided into a 6-well cell culture plate. After 24 hours, the cells were pretreated with compound 1.1 (SEQ ID NO: 2), compound 1.2, and smaducin-6, respectively, in a concentration of 100 nM for 30 min, and further treated with lipopolysaccharides (LPS) for two hours. These cells were collected using TRIzol® and the RNA was extracted. From 2 μg of the extracted RNA, cDNAs (complementary deoxyribonucleic acids) were synthesized and reverse transcription polymerase chain reactions (RT-PCR) and real-time polymerase chain reactions (Real-Time PCR) were performed. Samples from the RT-PCR were confirmed by electrophoresis on agarose gels and quantified using densitometer. A glyceraldehyde 3-phosphate dehydrogenase (GAPDH) gene was used as a loading control for the interleukin-6 gene.\nRAW 264.7 macrophage cells were treated with varying concentrations of compound 1.1 (SEQ ID NO: 2) from 50 pM to 500 nM for 30 minutes, and treated with 100 ng/mL of LPS for two hours."}, "[5]": {"tested_on": "MAPK signaling pathway proteins (ERK1/2, JNK, p38)", "test": "Western blot of MAPK signaling pathway protein phosphorylation in LPS-treated RAW 246.7 cells", "type": "cell-based", "conditions": "100 nM for 30 minutes", "protocol": "RAW 246.7 macrophage cells were pretreated with compound 1.1 (SEQ ID NO: 2), compound 1.2 and reference compound 1 (SEQ ID NO: 16) at a concentration of 100 nM for 30 minutes and then further treated with LPS for 0 hour, 0.5 hour, 1 hour and 2 hours. […] Changes of the concentration upon phosphorylation of each protein were measured by immunoblotting using anti-phosphorylation antibodies.\nSpecifically, RAW 246.7 macrophage cells were pretreated with DMSO, compound 1.1 (SEQ ID NO: 2) (100 nM), IRAK1/4 inhibitor (25 μM), and smaducin-6 (100 nM) for 30 minutes, and then further treated with LPS (100 ng/ml) for two hours."}, "[6]": {"tested_on": "G-CSF, IL-2, SCF, VEGF, CX3CL1, IGFBP5, IGFBP6, IL-1α, IL-1β, IL-6, IL-9, MCP-1, MIP-3α, IL12p40/70, MIG, TNF-α, and VCAM-1", "test": "Cytokine array (Mouse cytokine array C3) of LPS-treated RAW 264.7 macrophage cells", "type": "cell-based", "conditions": "100 nM for 30 minutes, LPS two hours, densitometer", "protocol": "as §1\nIn addition, RAW 264.7 macrophage cells cultured as described above were also divided into a 6-well plate, after 24 hours, were pretreated with 100 nM of compound 1.1 (SEQ ID NO: 2) for 30 minutes, and further treated with LPS for two hours. The above cell culture was collected and, using a cytokine array (Mouse cytokine array C3, RayBiotech), changes in amounts of cytokine and chemokine were quantified by a densitometer. The cytokines and chemokines detected by the compound of the present invention included G-CSF, IL-2, SCF, VEGF, CX3CL1, IGFBP5, IGFBP6, IL-1α, IL-1β, IL-6, IL-9, MCP-1, MIP-3α, IL12p40/70, MIG, TNF-α, and VCAM-1."}, "[7]": {"tested_on": "MAPK signaling pathway proteins (ERK1/2, JNK, p38)", "test": "Western blot of MAPK signaling pathway protein phosphorylation in LPS-treated BMDM cells", "type": "cell-based", "conditions": "100 pM, 1 nM, 100 nM, LPS 2 hours", "protocol": "BMDM cells were pretreated with DMSO, reference compound 1 (SEQ ID NO: 16), compound 1.1 (SEQ ID NO: 2) and smaducin-6 at various concentrations of 100 pM, 1 nM and 100 nM and then further treated with LPS 2 hours. Thereafter, Western blot analysis was performed."}}, "note": "Peptide text beside a SMILES is read from it."}
{"smiles": "CCCCCCCCCCCCCCCC(=O)N1CCC[C@H]1C(=O)N1CCC[C@H]1C(=O)NCC(=O)N[C@@H](Cc1ccc(O)cc1)C(=O)O", "note": "[compound 1.1, (S)-3-(4-hydroxyphenyl)-2-(2-((S)-1-((S)-1-palmitoylpyrrolidine-2-carbonyl)pyrrolidine-2-carboxamido)acetamido)propanoic acid] (HELM PEPTIDE1{[CCCCCCCCCCCCCCCC(=O)[*:2]].P.P.G.Y}$$$$V2.0)", "values": [{"measurement": "expression of Ang1 and Tie-2", "setting": "[1]", "value": "increased according to increased concentration"}, {"measurement": "expression of Nox4, VEGF, VEGFR1,2, Ang2, EPO and EPOR", "setting": "[1]", "value": "reduced"}, {"measurement": "activation of SBE induced by TFG-β1 treatment", "setting": "[2]", "value": "not inhibited"}, {"measurement": "tube formation", "setting": "[3]", "value": "suppressed tube formation"}, {"measurement": "IC50", "setting": "[4]; Mus musculus, RAW264.7, 50 pM to 500 nM for 30 minutes, 100 ng/mL LPS two hours, read-out: concentration where the expression of interleukin-6 was suppressed to 50% or below (IC50)", "value": "~1.6", "unit": "nM"}, {"measurement": "expression of interleukin-6 induced by LPS treatment", "setting": "[4]; pretreated 100 nM for 30 min, LPS two hours, compared to untreated sample", "value": "suppressed"}, {"measurement": "phosphorylation of the MAPK signaling pathway proteins (ERK1/2, JNK, p38)", "setting": "[5]; LPS 0, 0.5, 1 and 2 hours", "value": "did not inhibit phosphorylation"}, {"measurement": "MAPK signaling pathway / phosphorylation of ERK, JNK, p38", "setting": "[5]; LPS 100 ng/ml two hours", "value": "neither suppressed MAPK signaling pathway nor inhibited phosphorylation of the proteins"}, {"measurement": "expression of cytokines and chemokines induced by LPS (G-CSF, IL-2, SCF, VEGF, CX3CL1, IGFBP5, IGFBP6, IL-1α, IL-1β, IL-6, IL-9, MCP-1, MIP-3α, IL12p40/70, MIG, TNF-α, VCAM-1)", "setting": "[6]", "value": "suppressed as statistically meaningful"}, {"measurement": "phosphorylation of MAPK/ERK signaling pathway proteins (ERK1/2, JNK, p38)", "setting": "[7]", "value": "not related to suppressing phosphorylation"}]}
